In assay [1] the target is T1, Klenow large fragment (Escherichia coli, UniProt P00582).
T1 construct: gene polA; large (Klenow) fragment of DNA polymerase I, without the N-terminal 5'-3' exonuclease domain; commercial (New England Biolabs)
Nature of the assay: primer extension, denaturing PAGE and mass spectrometry. Format: biochemical. The conditions noted are these: templates T1 and T2, primer P3; 37°C.

The target of assay [2] is T2, Therminator II (Thermococcus sp. 9oN-7, UniProt Q56366, D141A/E143A/Y409V/A485L, form not given).
T2 construct: gene pol; commercial engineered variant of 9°N DNA polymerase (New England Biolabs)
T2 sequence (Q56366 whole entry D141A/E143A/Y409V/A485L, form open): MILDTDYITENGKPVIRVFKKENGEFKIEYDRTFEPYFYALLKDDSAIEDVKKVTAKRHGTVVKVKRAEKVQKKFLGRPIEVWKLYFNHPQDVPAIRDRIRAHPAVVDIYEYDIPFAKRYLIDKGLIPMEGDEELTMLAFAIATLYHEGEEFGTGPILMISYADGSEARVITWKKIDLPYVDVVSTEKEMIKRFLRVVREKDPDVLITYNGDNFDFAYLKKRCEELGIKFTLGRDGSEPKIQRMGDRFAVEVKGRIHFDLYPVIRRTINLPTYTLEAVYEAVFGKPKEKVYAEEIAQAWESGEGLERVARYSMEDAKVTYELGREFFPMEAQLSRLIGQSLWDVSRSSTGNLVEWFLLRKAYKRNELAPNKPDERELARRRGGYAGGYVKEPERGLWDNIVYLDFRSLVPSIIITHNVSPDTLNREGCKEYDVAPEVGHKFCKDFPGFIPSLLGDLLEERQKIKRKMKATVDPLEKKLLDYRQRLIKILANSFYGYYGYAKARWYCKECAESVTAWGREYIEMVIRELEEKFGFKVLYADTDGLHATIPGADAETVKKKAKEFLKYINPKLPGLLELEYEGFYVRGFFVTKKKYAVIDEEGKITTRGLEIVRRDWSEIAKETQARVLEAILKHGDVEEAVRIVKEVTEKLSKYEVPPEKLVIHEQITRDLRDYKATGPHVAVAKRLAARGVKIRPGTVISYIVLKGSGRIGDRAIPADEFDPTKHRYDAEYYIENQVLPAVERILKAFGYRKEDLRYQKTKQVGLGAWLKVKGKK
The assay is described as above. Format: biochemical. The conditions noted are these: templates T1 and T2, primer P3; 72°C.

T1 sequence (P00582 324-928 limits assumed): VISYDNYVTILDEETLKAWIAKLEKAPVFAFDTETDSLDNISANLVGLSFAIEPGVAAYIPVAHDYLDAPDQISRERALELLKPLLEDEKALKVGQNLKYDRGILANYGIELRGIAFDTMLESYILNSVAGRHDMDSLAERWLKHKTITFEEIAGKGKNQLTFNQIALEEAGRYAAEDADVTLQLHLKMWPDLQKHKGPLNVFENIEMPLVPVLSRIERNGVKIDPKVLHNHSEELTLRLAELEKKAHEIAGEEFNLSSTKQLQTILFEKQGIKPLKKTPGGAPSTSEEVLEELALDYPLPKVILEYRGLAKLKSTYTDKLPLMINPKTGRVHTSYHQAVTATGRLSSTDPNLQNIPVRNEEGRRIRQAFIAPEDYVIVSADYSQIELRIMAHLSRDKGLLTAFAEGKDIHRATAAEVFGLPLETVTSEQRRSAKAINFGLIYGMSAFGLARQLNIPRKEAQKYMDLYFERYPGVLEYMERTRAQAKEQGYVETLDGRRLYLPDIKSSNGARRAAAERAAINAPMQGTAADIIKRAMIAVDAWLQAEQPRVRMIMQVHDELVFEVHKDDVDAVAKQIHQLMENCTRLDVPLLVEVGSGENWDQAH

As to `[N-]=[N+]=NCCCCCC(=O)NCC#Cc1cn([C@H]2C[C@H](O)[C@@H](COP(=O)(O)OP(=O)(O)OP(=O)(O)O)O2)c(=O)[nH]c1=O` [AHP dUTP], the “primer extension, denaturing PAGE and mass spectrometry” value is “all four polymerases successfully incorporate AHP dUTP in the presence of templates T1 and T2” in assay [1]; “all four polymerases successfully incorporate AHP dUTP in the presence of templates T1 and T2” in assay [2].

These data come from article PMC4856977, “Efficient enzymatic synthesis and dual-colour fluorescent labelling of DNA probes using long chain azido-dUTP and BCN dyes” (Nucleic Acids Research, 2016).
